Source: publication PMC8998355, “Diversity-Oriented Synthesis Catalyzed by Diethylaminosulfur-Trifluoride—Preparation of New Antitumor Ecdysteroid Derivatives” (International Journal of Molecular Sciences, 2022)

Experiments:
[1] = test system: L5178Y mouse T-cell lymphoma cells; experiment: MTT cytotoxicity assay (24 h, 1 × 10^4 cells); type: cell-based; conditions: 24 h MTT, n = 3, read-out: Cytotoxicity (IC50 ± SD)
Experimental: (§1) To assess the compounds’ effect on cell growth and viability, we used two different experimental setups of MTT assay. This allowed a comparative evaluation of results obtained from a short-term (24 h) treatment of a relatively higher number (10,000) of cells and those from a long-term (72 h) treatment of a lower cell number (6000), which makes it possible to gain some insight into the cytotoxic vs. cytostatic properties of the compounds. Even though MTT assay is an endpoint detection method, i.e., it provides a single readout of viable cells at the end of the experiment, such a comparison offers a reliable tool to identify antiproliferative activity of compounds that are not cytotoxic.
(§2) L5178Y mouse T-cell lymphoma cells (ECACC Cat. No. 87111908) were obtained from FDA, Silver Spring, MD, USA. These were transfected with pHa MDR1/A retrovirus as described previously. ABCB1-expressing L5178YMDR cells were selected by culturing the infected cells with colchicine. The cell lines were cultured in McCoy’s 5A medium supplemented with 10% heat inactivated horse serum, 2 mM L-glutamine, and penicillin–streptomycin mixture.
(§3) MTT assay was performed in 96-well flat-bottomed microtiter plates as described before. Briefly, a 10 mM concentration stock solution in DMSO was prepared for each compound. These were diluted in 100 μL of McCoy’s 5A medium. Subsequently, 1 × 10^4 (cytotoxicity assay) or 6 × 10^3 (antiproliferative assay) T-cell mouse lymphoma cells in 100 μL of medium were added to each well, except for the medium control wells.
(§4) The culture plates were further incubated at 37 °C for 24 h (cytotoxicity assay) or 72 h (antiproliferative assay); at the end of the incubation period, 20 μL of MTT solution (from a 5 mg/mL stock) was added to each well. After incubation at 37 °C for 4 h, 100 μL of SDS solution (10% in 0.01 M HCI) was added to each well and the plates were further incubated at 37 °C overnight. The cell growth was determined by measuring the optical density at 540 nm (ref. 630 nm) with a Multiscan EX ELISA reader (Thermo Labsystems, Cheshire, WA, USA). IC50 values were calculated by variable slope nonlinear regression using the log(inhibitor) vs. normalized response of GraphPad Prism 5.01 (GraphPad Software Inc., San Diego, CA, USA).

[2] = test system: L5178YMDR cells (ABCB1-expressing); experiment: MTT cytotoxicity assay (24 h, 1 × 10^4 cells); type: cell-based; conditions: Mus musculus, 24 h MTT, n = 3, read-out: Cytotoxicity (IC50 ± SD)
Experimental: as §1, §2, §3, §4

[3] = MTT cytotoxicity assay (24 h); type: cell-based; conditions: human, MRC-5 human embryonal lung fibroblasts; MRC-5, 24 h MTT, n = 3; read-out: Cytotoxicity (IC50 ± SD)
Experimental: as §1
(§5) MRC-5 human embryonal lung fibroblasts (CCL-171, ATCC) were acquired from Sigma-Aldrich (Merck, KGaA, Darmstadt, Germany), and were cultured in EMEM medium containing 4.5 g/L glucose and supplemented with a non-essential amino acid mixture, a selection of vitamins, and 10% of FBS.
(§6) The adherent human fibroblast cells were seeded in 100 μL of EMEM medium overnight before each assay. Two-fold serial dilutions of the compounds (0.19–100 µM) were prepared in separate plates, then transferred to the plates containing the adherent cell lines.
as §4

[4] = test system: L5178Y mouse T-cell lymphoma cells; experiment: MTT antiproliferative assay (72 h, 6 × 10^3 cells); type: cell-based; conditions: Mus musculus; L5178Y, 72 h MTT, n = 3; read-out: Antiproliferative Effect (IC50 ± SD)
Experimental: as §1, §2, §3, §4

[5] = test system: L5178YMDR cells (ABCB1-expressing); experiment: MTT antiproliferative assay (72 h, 6 × 10^3 cells); type: cell-based; conditions: Mus musculus, 72 h MTT, n = 3, read-out: Antiproliferative Effect (IC50 ± SD)
Experimental: as §1, §2, §3, §4

[6] = test system: MRC-5 human embryonal lung fibroblasts; experiment: MTT antiproliferative assay (72 h); type: cell-based; conditions: Homo sapiens, MRC5; MRC-5, 72 h MTT, n = 3; read-out: Antiproliferative Effect (IC50 ± SD)
Experimental: as §1, §5, §6, §4

ABCB1 = target: T1, ABCB1 (Homo sapiens, UniProt P08183); experiment: ABCB1 inhibition assay (rhodamine 123 accumulation, flow cytometry); type: cell-based; conditions: human, probe rhodamine 123 (5.2 µM); for inhibition at 20 min, 2 µM / inhibition at 20 min, 20 µM: n = 1
T1 construct: expressed in transfected cells; host or cells: L5178Y mouse T-cell lymphoma cells transfected with pHa MDR1/A retrovirus, selected with colchicine (L5178YMDR)
Experimental: ABCB1 inhibition was determined by the intracellular accumulation of rhodamin 123 as reported before. Briefly, 2 × 10^6 cells/mL of L5178Y and L5178YMDR cell lines were re-suspended in serum-free McCoy’s 5A medium and distributed in 0.5 mL aliquots into Eppendorf centrifuge tubes. The compounds were added at a final concentration of 2 or 20 μM and the samples were incubated for 10 min at room temperature. Tariquidar was used as positive control and DMSO as negative control; for the latter, no activity was observed. Subsequently, 10 μL (5.2 μM final concentration) of the ABCB1 substrate fluorescent dye rhodamine 123 was added and the cells were incubated further for 20 min at 37 °C, washed twice and re-suspended in 1 mL PBS for analysis. Fluorescence of the cell population was measured with a PartecCyFlow® flow cytometer (Partec, Münster, Germany). Mean fluorescence intensity percentage was calculated for the treated vs. untreated L5178YMDR cells. Inhibition percentage for the treated cells was calculated from the corresponding values of the untreated L5178Y and L5178YMDR cells, representing 100% and 0% inhibition, respectively.

L5178YMDR cells = experiment: Combination assay with doxorubicin (checkerboard microplate method, MTT); type: cell-based, mouse; set-up: Dm (antilog of the x-intercept of the median-effect plot): unit not given here; conditions: for CIavg (weighted average CI): (CI50 + 2CI75 + 3CI90)/6
Experimental: Compounds 7, 10, 11, 13, and 14 had sufficient individual antiproliferative properties for their assessment of chemo-sensitizing activity. This was carried out as an antiproliferative assay on L5178YMDR cells in combination with doxorubicin, arranged according to the checkerboard microplate method.
The checkerboard microplate method was used to evaluate the compounds’ interaction with doxorubicin, as described before. Briefly, doxorubicin (2 mg/mL, Teva Pharmaceuticals, Budapest, Hungary) was serially diluted in the horizontal direction (100 µL per well), and the ecdysteroid was subsequently diluted in the vertical direction (50 µL per well). L5178YMDR cells were re-suspended in culture medium and added to each test well in 50 µL to contain 1 × 10^4 cells per well, and 50 µL of medium was added to the medium control wells. The plates were incubated for 72 h at 37 °C in a CO2 incubator and, at the end of the incubation period, the cell growth was determined by MTT assay as described above. Cell viability data were analyzed by the Calcusyn software using the Chou method, and drug interactions were expressed as combination index (CI) values, in which 0 < CI < 1, CI = 1, and CI > 1 refer to synergism, additivity, and antagonism, respectively.

[7] = L5178YMDR, rhodamine 123 accumulation
[8] = drug ratio 11.6:1, with doxorubicin
[9] = drug ratio 23.1:1, with doxorubicin
[10] = drug ratio 46.4:1, with doxorubicin
[11] = drug ratio 23.2:1, with doxorubicin
[12] = drug ratio 92.8:1, with doxorubicin
[13] = drug ratio 185.6:1, with doxorubicin

Row | Compound | IC50 [1] [µM] | IC50 [2] [µM] | IC50 at 24 h [3] [µM] | IC50 [4] [µM] | IC50 [5] [µM] | IC50 [6] [µM] | inhibition at 20 min, 2 µM (ABCB1; [7]) [%] | inhibition at 20 min, 20 µM (ABCB1; [7]) [%] | further results
1 | CC(=O)[C@H]1CC[C@@]2(O)C3=CC(=O)[C@@H]4C[C@H]5OC(C)(C)O[C@H]5C[C@]4(C)[C@H]3[C@H](O)C[C@]12C [Compound 3] | > 100 | > 100 | > 100 | 75.5 ± 4.1 | > 100 | 21.4 ± 0.2 | -0.03 | -0.35 | –
2 | CC(=O)[C@H]1CC[C@@]2(O)C3=CC(=O)[C@@H]4C[C@H]5OC(C)(C)O[C@H]5C[C@]4(C)C3=CC[C@]12C [Compound 5] | > 100 | > 100 | > 100 | 56.5 ± 6 | 80.2 ± 2.1 | 20.9 ± 3.6 | 0.2 | -0.41 | –
3 | CC(=O)[C@H]1CC=C2C3=CC(=O)[C@@H]4C[C@H]5OC(C)(C)O[C@H]5C[C@]4(C)C3=CC[C@@]21C [Compound 6] | 91.1 ± 6.8 | > 100 | > 100 | 31.2 ± 3.9 | 54.1 ± 2.3 | > 100 | -0.38 | 0.13 | –
4 | CC(=O)[C@H]1CC[C@@]2(F)C3=CC(=O)[C@@H]4C[C@H]5OC(C)(C)O[C@H]5C[C@]4(C)C3=CC[C@]12C [Compound 7] | 38.6 ± 1.6 | 57.5 ± 6.3 | > 100 | 15.2 ± 1.9 | 20 ± 2.4 | > 100 | -0.24 | 0.29 | CI at ED75 (L5178YMDR cells; [8]): 0.76; CI at ED90 (L5178YMDR cells; [8]): 0.59; Dm (antilog of the x-intercept of the median-effect plot) (L5178YMDR cells; [8]): 4.05; CIavg (weighted average CI) (L5178YMDR cells; [8]): 0.71; CI at ED75 (L5178YMDR cells; [9]): 1.26; CI at ED90 (L5178YMDR cells; [9]): 1.37; Dm (antilog of the x-intercept of the median-effect plot) (L5178YMDR cells; [9]): 7.83; CIavg (weighted average CI) (L5178YMDR cells; [9]): 1.30; CI at ED75 (L5178YMDR cells; [10]): 0.84; CI at ED90 (L5178YMDR cells; [10]): 0.60; Dm (antilog of the x-intercept of the median-effect plot) (L5178YMDR cells; [10]): 11.56; CIavg (weighted average CI) (L5178YMDR cells; [10]): 0.78
5 | CC(=O)[C@H]1CC[C@@]2(O)C3=CC(=O)[C@@H]4C[C@H]5OC(C)(C)O[C@H]5C[C@]4(C)[C@H]3CC[C@]12C [Compound 9, poststerone 2,3-acetonide] | > 100 | > 100 | > 100 | 49.2 ± 3.4 | 85.2 ± 5.1 | > 100 | -0.4 | -0.42 | –
6 | CC(=O)[C@H]1CC=C2C3=CC(=O)[C@@H]4C[C@H]5OC(C)(C)O[C@H]5C[C@]4(C)[C@H]3CC[C@@]21C [Compound 10] | 72.9 ± 5.6 | 83 ± 5 | > 100 | 27.7 ± 0.6 | 42.3 ± 1.5 | > 100 | -0.38 | -0.16 | CI at ED75 (L5178YMDR cells; [11]): 0.50; CI at ED90 (L5178YMDR cells; [11]): 0.33; Dm (antilog of the x-intercept of the median-effect plot) (L5178YMDR cells; [11]): 6.50; CIavg (weighted average CI) (L5178YMDR cells; [11]): 0.46; CI at ED75 (L5178YMDR cells; [10]): 0.51; CI at ED90 (L5178YMDR cells; [10]): 0.30; Dm (antilog of the x-intercept of the median-effect plot) (L5178YMDR cells; [10]): 10.99; CIavg (weighted average CI) (L5178YMDR cells; [10]): 0.46; CI at ED75 (L5178YMDR cells; [12]): 0.55; CI at ED90 (L5178YMDR cells; [12]): 0.35; Dm (antilog of the x-intercept of the median-effect plot) (L5178YMDR cells; [12]): 14.02; CIavg (weighted average CI) (L5178YMDR cells; [12]): 0.50; CI at ED75 (L5178YMDR cells; [13]): 0.61; CI at ED90 (L5178YMDR cells; [13]): 0.36; Dm (antilog of the x-intercept of the median-effect plot) (L5178YMDR cells; [13]): 19.47; CIavg (weighted average CI) (L5178YMDR cells; [13]): 0.55
7 | CC(=O)O[C@H]1C[C@@]2(C)C(=C(O)C(=O)C3=C2CC[C@@]2(C)C3=CC[C@@H]2[C@@]2(C)OC(C)(C)O[C@@H]2CCC(C)(C)O)C[C@H]1O [Compound 16, calonysterone 2-acetate 20,22-acetonide] | 63 ± 4.4 | 78.7 ± 6.7 | > 100 | 50.3 ± 0.2 | 40 ± 3.4 | 67.2 ± 14.6 | 0.71 | 15.7 | –
8 | CC(=O)O[C@H]1C[C@]2(C)C3=CC[C@@]4(C)C(=CC[C@@H]4[C@@]4(C)OC(C)(C)O[C@@H]4CCC(C)(C)O)C3=C(O)C(=O)[C@@]23C[C@@H]13 [Compound 17] | 27.2 ± 1 | 35.9 ± 0.6 | – | 20.3 ± 1 | 14.3 ± 0.5 | 5.9 ± 1.2 | 1.08 | 45.5 | inhibition at 20 min (ABCB1; concentration not given, read-out: direct ABCB1 inhibition): ~50%
9 | COc1cccc2c1C(=O)c1c(O)c3c(c(O)c1C2=O)C[C@@](O)(C(=O)CO)C[C@@H]3O[C@H]1C[C@H](N)[C@H](O)[C@H](C)O1 [Doxorubicin, reference compound] | 0.3 ± 0.1 | 8.1 ± 2.8 | 1.7 ± 0.5 | 0.014 ± 0.002 | 0.71 ± 0.2 | – | – | – | –
10 | COc1cc2c(cc1OC)CN(CCc1ccc(NC(=O)c3cc(OC)c(OC)cc3NC(=O)c3cnc4ccccc4c3)cc1)CC2 [tariquidar, reference compound] | – | – | – | – | – | – | – | – | inhibition at 20 min, 0.02 µM (ABCB1; 20 nM, L5178YMDR, rhodamine 123 accumulation, read-out: ABCB1 inhibition, positive control): 87.5%
